Measurements: PubChem BioAssay AID248 (DTP/NCI, 2004)
Inconclusive results and toxic doses are left out. Cut-off read from the data, not from the text of the source: active = T/C of 150% or more; inactive = T/C below 125%.

System: L1210 leukemia ip in BDF1 mice, survival T/C
Assay: NCI In Vivo Anticancer Drug Screen. Data for tumor model L1210 Leukemia (intraperitoneal) in B6D2F1 (BDF1) mice
Details: endpoint: mean survival time, higher = longer survival
Method in brief: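 Survival endpoint. Drug-treated group vs vehicle group, expressed as T divided by C. Tumor passaged by transplantation.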

[1] = dose: 100.0 mg/kg/injection, schedule: Q01DX009 (ip), vehicle: Klucel (hydroxypropylcellulose) (HPC)
[2] = dose: 100.0 mg/kg/injection, schedule: Q04DX003 (ip), vehicle: Klucel (hydroxypropylcellulose) (HPC)
[3] = dose: 200.0 mg/kg/injection, schedule: Q01DX009 (ip), vehicle: Klucel (hydroxypropylcellulose) (HPC)
[4] = dose: 200.0 mg/kg/injection, schedule: Q04DX003 (ip), vehicle: Klucel (hydroxypropylcellulose) (HPC)
[5] = dose: 400.0 mg/kg/injection, schedule: Q04DX003 (ip), vehicle: Klucel (hydroxypropylcellulose) (HPC)
[6] = dose: 100.0 mg/kg/injection, schedule: Q01DX001 (ip), vehicle: carboxymethylcellulose (CMC)
[7] = dose: 200.0 mg/kg/injection, schedule: Q01DX001 (ip), vehicle: carboxymethylcellulose (CMC)
[8] = dose: 100.0 mg/kg/injection, schedule: Q01DX009 (ip), vehicle: saline
[9] = dose: 100.0 mg/kg/injection, schedule: Q04DX003 (ip), vehicle: saline
[10] = dose: 200.0 mg/kg/injection, schedule: Q01DX009 (ip), vehicle: saline
[11] = dose: 200.0 mg/kg/injection, schedule: Q04DX003 (ip), vehicle: saline
[12] = dose: 400.0 mg/kg/injection, schedule: Q04DX003 (ip), vehicle: saline
[13] = dose: 100.0 mg/kg/injection, schedule: Q01DX001 (ip), vehicle: saline
[14] = dose: 200.0 mg/kg/injection, schedule: Q01DX001 (ip), vehicle: saline
[15] = dose: 400.0 mg/kg/injection, schedule: Q01DX009 (ip), vehicle: saline
[16] = dose: 400.0 mg/kg/injection, schedule: Q01DX001 (ip), vehicle: saline

Measured: T/C

COC(=O)c1ccccc1NC(=O)Nc1cc(Cl)ccc1OC
inactive: [1] 89 % of control | [2] 106 % of control | [3] 103 % of control | [4] 90 % of control | dose: 400.0 mg/kg/injection, schedule: Q01DX009 (ip), vehicle: Klucel (hydroxypropylcellulose) (HPC) 107 % of control | [5] 95 % of control

CC(=O)Nc1ccc2ccccc2c1-c1c(NC(C)=O)ccc2ccccc12
inactive: dose: 25.0 mg/kg/injection, schedule: Q04DX002 (ip), vehicle: saline with Tween-80 97 % of control | dose: 50.0 mg/kg/injection, schedule: Q04DX002 (ip), vehicle: saline with Tween-80 90 % of control

Nc1nc(N)c(CCCc2ccccc2)c(N)n1
inactive: dose: 100.0 mg/kg/injection, schedule: Q04DX002 (ip), vehicle: Klucel (hydroxypropylcellulose) (HPC) 87 % of control

CCOP(=O)(CI)Oc1ccc([N+](=O)[O-])cc1 (stereo unspecified)
inactive: dose: 0.5 mg/kg/injection, schedule: Q01DX001 (ip), vehicle: saline 100 % of control | dose: 1.0 mg/kg/injection, schedule: Q01DX001 (ip), vehicle: saline 102 % of control | dose: 2.0 mg/kg/injection, schedule: Q01DX001 (ip), vehicle: saline 100 % of control

CN(C)c1n[nH]c(N=[N+]=[N-])n1
inactive: dose: 100.0 mg/kg/injection, schedule: Q04DX002 (ip), vehicle: saline with Tween-80 104 % of control | dose: 200.0 mg/kg/injection, schedule: Q04DX002 (ip), vehicle: saline with Tween-80 90 % of control | dose: 400.0 mg/kg/injection, schedule: Q04DX002 (ip), vehicle: saline with Tween-80 104 % of control

COc1ccc(CN2CCCN(Cc3ccc(OC)cc3OC)C2c2cc(OC)ccc2OC)c(OC)c1
inactive: dose: 50.0 mg/kg/injection, schedule: Q01DX001 (ip), vehicle: carboxymethylcellulose (CMC) 114 % of control | [6] 102 % of control | [7] 102 % of control | dose: 400.0 mg/kg/injection, schedule: Q01DX001 (ip), vehicle: carboxymethylcellulose (CMC) 108 % of control

CCOC(=O)CSc1nc(N)cc(=O)[nH]1
inactive: dose: 50.0 mg/kg/injection, schedule: Q01DX001 (ip), vehicle: Klucel (hydroxypropylcellulose) (HPC) 110 % of control | dose: 100.0 mg/kg/injection, schedule: Q01DX001 (ip), vehicle: Klucel (hydroxypropylcellulose) (HPC) 117 % of control | dose: 200.0 mg/kg/injection, schedule: Q01DX001 (ip), vehicle: Klucel (hydroxypropylcellulose) (HPC) 110 % of control

O=C(N/N=C/C(CC(O)C(O)CO)=N/NC(=O)c1ccc(Cl)cc1)c1ccc(Cl)cc1 (stereo unspecified)
inactive: [1] 109 % of control | [3] 97 % of control

CCOC(=O)/C=C/c1cccc(O)c1
inactive: dose: 100.0 mg/kg/injection, schedule: Q01DX001 (ip), vehicle: gum acacia 106 % of control | dose: 200.0 mg/kg/injection, schedule: Q01DX001 (ip), vehicle: gum acacia 110 % of control | dose: 400.0 mg/kg/injection, schedule: Q01DX001 (ip), vehicle: gum acacia 97 % of control

Nc1nc2c(c(-c3ccc(Cl)cc3)n1)CN(c1ccc(Br)cc1)C2=O
inactive: dose: 50.0 mg/kg/injection, schedule: Q01DX009 (ip), vehicle: saline 95 % of control | [8] 108 % of control | [9] 97 % of control | [10] 92 % of control | [11] 100 % of control | [12] 92 % of control

CCC(COC(=O)c1ccc(N(CC)CC)cc1)NC1CCCCC1 (stereo unspecified)
inactive: dose: 75.0 mg/kg/injection, schedule: Q01DX001 (ip), vehicle: carboxymethylcellulose (CMC) 95 % of control | dose: 150.0 mg/kg/injection, schedule: Q01DX001 (ip), vehicle: carboxymethylcellulose (CMC) 95 % of control | dose: 300.0 mg/kg/injection, schedule: Q01DX001 (ip), vehicle: carboxymethylcellulose (CMC) 94 % of control

Nc1c(S(=O)(=O)O)cc(Nc2cccc(CO)c2)c2c1C(=O)c1ccccc1C2=O
inactive: dose: 5.0 mg/kg/injection, schedule: Q01DX001 (ip), vehicle: saline 105 % of control | dose: 10.0 mg/kg/injection, schedule: Q01DX001 (ip), vehicle: saline 103 % of control | dose: 20.0 mg/kg/injection, schedule: Q01DX001 (ip), vehicle: saline 101 % of control | dose: 40.0 mg/kg/injection, schedule: Q01DX001 (ip), vehicle: saline 94 % of control | dose: 80.0 mg/kg/injection, schedule: Q01DX001 (ip), vehicle: saline 95 % of control | [13] 95 % of control | [9] 101 % of control | [14] 93 % of control | [11] 104 % of control | [12] 92 % of control

Cn1cnc(C(N)=S)c1N
inactive: [8] 98 % of control | [9] 107 % of control | [10] 105 % of control | [11] 102 % of control | [15] 96 % of control | [12] 105 % of control

CCCOB(OCCC)OCCC
inactive: dose: 50.0 mg/kg/injection, schedule: Q01DX001 (ip), vehicle: saline 95 % of control | [13] 98 % of control | [14] 98 % of control | [16] 106 % of control

O=[N+]([O-])c1ccc(-n2ncc3cccnc32)c([N+](=O)[O-])c1
inactive: dose: 75.0 mg/kg/injection, schedule: Q01DX001 (ip), vehicle: other 94 % of control | dose: 150.0 mg/kg/injection, schedule: Q01DX001 (ip), vehicle: other 100 % of control | dose: 300.0 mg/kg/injection, schedule: Q01DX001 (ip), vehicle: other 90 % of control

C/C(=N/NC(N)=S)c1ccco1
inactive: [14] 119 % of control | [16] 102 % of control

C/C(=C(/CCO)SCCC(=O)c1ccc(C)cc1)N(C=O)Cc1cnc(C)nc1N
inactive: [9] 97 % of control | [11] 97 % of control | [12] 93 % of control

CCN1C(c2ccccc2)C1c1ccccc1 (stereo unspecified)
inactive: [2] 101 % of control | [4] 102 % of control | [5] 101 % of control

O=C(O)Cc1cccnc1
inactive: [8] 102 % of control | [9] 101 % of control | [10] 100 % of control | [11] 104 % of control | [15] 89 % of control | [12] 95 % of control

CCOC(=O)C1CC(=O)c2cc(OC)c(OC)cc2C1c1ccc(OC)c(OC)c1 (stereo unspecified)
inactive: [6] 98 % of control | [7] 89 % of control

O=C(O)CSC(=S)N1CCOCC1
inactive: dose: 100.0 mg/kg/injection, schedule: Q01DX001 (ip), vehicle: saline with Tween-80 91 % of control | dose: 200.0 mg/kg/injection, schedule: Q01DX001 (ip), vehicle: saline with Tween-80 88 % of control | dose: 400.0 mg/kg/injection, schedule: Q01DX001 (ip), vehicle: saline with Tween-80 94 % of control

NNC(=O)C1CCCCN1 (stereo unspecified)
inactive: dose: 100.0 mg/kg/injection, schedule: Q01DX001 (ip), vehicle: water 98 % of control | dose: 200.0 mg/kg/injection, schedule: Q01DX001 (ip), vehicle: water 100 % of control | dose: 400.0 mg/kg/injection, schedule: Q01DX001 (ip), vehicle: water 104 % of control
